The text below walks through data of patent US8569295B2, “Bicyclic urea compounds” (Merck Patent GmbH, priority 2009, dated 2013).

In one test the target is T1, RON kinase (Homo sapiens, UniProt Q04912).
T1 construct: purchased Caliper Life Sciences
Description: RON kinase biochemical mobility shift assay (Caliper Desktop Profiler). The conditions noted are these: RON kinase inhibition.

A further test deals with T2, GST-Aurora A (Homo sapiens, UniProt O14965).
T2 construct: N-terminal GST fusion with full length Aurora A (1-403 amino acids); purchased Carna Biosciences 05-101
T2 sequence (O14965 1-403): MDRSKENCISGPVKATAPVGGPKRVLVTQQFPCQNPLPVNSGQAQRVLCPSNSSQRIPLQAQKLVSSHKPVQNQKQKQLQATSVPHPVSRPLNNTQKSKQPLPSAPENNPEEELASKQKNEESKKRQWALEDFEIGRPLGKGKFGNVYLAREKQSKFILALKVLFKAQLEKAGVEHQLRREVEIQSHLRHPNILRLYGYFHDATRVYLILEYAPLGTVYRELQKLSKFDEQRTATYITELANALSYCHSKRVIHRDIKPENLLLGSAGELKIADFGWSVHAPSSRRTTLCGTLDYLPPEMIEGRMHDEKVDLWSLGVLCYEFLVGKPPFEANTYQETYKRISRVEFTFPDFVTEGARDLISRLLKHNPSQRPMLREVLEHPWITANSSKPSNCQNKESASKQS
The test can be described thus: Aurora A kinase biochemical mobility shift assay (Caliper LC3000 / Desktop Profiler). The conditions noted are these: AK A (Aurora kinase A) inhibition. On the procedure: The Aurora assays described here are performed on two Caliper Life Sciences systems: the LC3000 and the Desktop Profiler. The RON kinase assays are performed on the Desktop Profiler only. These provide data on enzyme activity via measurement of the relative amounts of phosphorylated or unphosphorylated fluorescently labelled substrate peptide at the end of an enzymatic reaction. These different states of peptide are resolved by applying a potential difference across the sample. The presence of the charged phosphate group on the product (as opposed to the substrate) causes a different peptide mobility between the two peptides. This is visualized by excitation of the fluorescent label on the substrate and product peptides and represented as peaks within the analysis software.
In order to measure inhibitor activity of Aurora A inhibitors in the Caliper Life Sciences LC3000, a TTP Mosquito liquid handling instrument is used to place 0.25 ul of the appropriate concentration of inhibitor in 100% DMSO (for a dose response curve calculation) into each well of a 384-well plate. To this reaction components are added to a final volume of 25 ul: • 0.067 ng/ul GST-Aurora A (Carna Biosciences 05-101. N-terminal GST fusion with full length Aurora A (1-403 amino acids), accession number NP_940835.1). • 15 uM ATP (Fluka, 02055) • 1 mM DTT (Sigma, D0632) • 1 mM MgCl2 (Sigma, M1028) • 1 uM substrate peptide (sequence FITC-LRRASLG-(CONH2), synthesized by Tufts Peptide Synthesis service. • 100 mM HEPES pH 7.5 (Calbiochem, 391338) • 0.015% Brij-35 (Sigma, B4184)
The reaction is incubated for 90 min at 25 C, and then stopped by the addition of 70 ul of Stop buffer (100 mM HEPES pH 7.5, 0.015% Brij-35, 10 mM EDTA (Sigma, E7889)).
The plate is read on a Caliper LC3000 in an Off-Chip mobility shift assay format, using the following parameters for a 12-sipper chip: screening pressure −1.8 psi, upstream voltage −2700, downstream voltage −1000. These conditions cause unphosphorylated substrate and phosphorylated product peptide to resolve as separate peaks allowing direct measurement of percentage of conversion of substrate to product. The percent conversion can be plotted against concentration of inhibitor to produce a sigmoidal dose response curve, from which an IC50 can be calculated using XLFit for Microsoft Excel.
The Desktop Profiler utilizes the same priniciple as the LC3000 for calculating percentage conversion of a substrate to product. Caliper Life Sciences provides proprietary flash frozen pre-made 384 well plates containing selected kinases. Each column in the 384 well plate contains a particular selected kinase. A second plate, the ‘substrate plate’ contains a mix of fluorescently labeled peptide substrate and ATP. These are arranged in columns so that transfer for substrate plate to enzyme plate provides the correct enzyme with the correct substrate/ATP concentration. Compounds are added to a thawed enzyme plate in the desired format, in single concentrations. Reactions are initiated by transfer of the substrate/ATP mix from the substrate plate. The enzyme plate is incubated for 90 minutes at 25 C. The reaction is stopped by addition of 70 ul of Stop Buffer (100 mM HEPES pH 7.5, 0.015% Brij-35, 10 mM EDTA (Sigma, E7889)).
Reading of the plate in the Profiler is identical to the LC3000, and the ratio between substrate and product peaks provides the activity of the enzyme in that well. This is best represented by a plate heat map which colors each well by percent inhibition as compared to positive and negative controls (no inhibitors and no ATP respectively).

The subject of another test is normal human cell growth. Particulars: in vitro, normal human cells vs tumor cells of various origins; cited from earlier work.

T1 sequence (Q04912 25-1400): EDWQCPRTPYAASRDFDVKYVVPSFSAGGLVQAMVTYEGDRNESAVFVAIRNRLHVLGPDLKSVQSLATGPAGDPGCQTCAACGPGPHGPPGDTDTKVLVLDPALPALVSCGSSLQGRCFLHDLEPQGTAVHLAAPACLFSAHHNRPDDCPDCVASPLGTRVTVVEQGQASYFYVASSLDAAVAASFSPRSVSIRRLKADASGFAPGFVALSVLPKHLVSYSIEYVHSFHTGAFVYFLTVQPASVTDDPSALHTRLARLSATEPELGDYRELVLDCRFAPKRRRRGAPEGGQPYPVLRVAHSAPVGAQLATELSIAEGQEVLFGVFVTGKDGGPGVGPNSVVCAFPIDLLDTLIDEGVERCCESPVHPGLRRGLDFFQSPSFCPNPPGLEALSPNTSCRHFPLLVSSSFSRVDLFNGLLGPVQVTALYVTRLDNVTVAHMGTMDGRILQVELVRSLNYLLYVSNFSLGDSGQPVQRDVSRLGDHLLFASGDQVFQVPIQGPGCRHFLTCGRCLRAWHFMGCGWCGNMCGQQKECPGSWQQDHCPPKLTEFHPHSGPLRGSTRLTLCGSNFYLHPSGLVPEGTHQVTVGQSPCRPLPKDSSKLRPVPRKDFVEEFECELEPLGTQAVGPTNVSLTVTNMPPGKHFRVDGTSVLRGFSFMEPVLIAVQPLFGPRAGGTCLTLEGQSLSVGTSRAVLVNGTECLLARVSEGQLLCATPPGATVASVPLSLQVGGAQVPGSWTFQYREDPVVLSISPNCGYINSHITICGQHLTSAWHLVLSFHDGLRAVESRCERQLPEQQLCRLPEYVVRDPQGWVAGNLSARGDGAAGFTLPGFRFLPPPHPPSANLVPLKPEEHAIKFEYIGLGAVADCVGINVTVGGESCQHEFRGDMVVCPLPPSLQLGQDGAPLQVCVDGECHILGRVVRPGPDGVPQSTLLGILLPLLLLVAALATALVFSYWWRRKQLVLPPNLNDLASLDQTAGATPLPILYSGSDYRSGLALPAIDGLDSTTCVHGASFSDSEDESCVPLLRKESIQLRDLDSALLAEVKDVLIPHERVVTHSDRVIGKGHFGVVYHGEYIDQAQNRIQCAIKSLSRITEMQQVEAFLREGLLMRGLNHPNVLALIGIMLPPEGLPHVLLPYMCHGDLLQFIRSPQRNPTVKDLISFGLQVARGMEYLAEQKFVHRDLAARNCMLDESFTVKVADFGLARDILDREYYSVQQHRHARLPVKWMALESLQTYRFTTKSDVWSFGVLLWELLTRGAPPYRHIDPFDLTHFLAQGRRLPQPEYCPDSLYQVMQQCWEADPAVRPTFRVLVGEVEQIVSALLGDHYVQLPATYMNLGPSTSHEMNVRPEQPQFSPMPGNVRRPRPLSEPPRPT

Usually IC50 stands for the concentration that inhibits the measured activity by half. For `O=C1NCc2c(Oc3ccc(NC(=O)c4cc(Cl)cnc4Cl)cc3F)ccnc2N1` [Example 65, 2,5-dichloro-N-{3-fluoro-4-[(2-oxo-1,2,3,4-tetrahydropyrido[2,3-d]pyrimidin-5-yl)oxy]phenyl}-nicotinamide], the IC50 at RON kinase and at GST-Aurora A was 0.01 to 0.1 µM in each case.

With `O=C1NCc2c(Oc3ccc(NC(=O)c4cccc(Br)c4)cc3F)ccnc2N1` [Example 66, 3-bromo-N-{3-fluoro-4-[(2-oxo-1,2,3,4-tetrahydropyrido[2,3-d]pyrimidin-5-yl)oxy]phenyl}-benzamide], the IC50 on RON kinase and at GST-Aurora A was 0.01 to 0.1 µM throughout.

On to `O=C(Nc1cccc(Cl)c1)Nc1ccc(Oc2ccnc3c2CNC(=O)N3)c(F)c1` [Example 67, N-(3-chlorophenyl)-N′-{3-fluoro-4-[(2-oxo-1,2,3,4-tetrahydropyrido[2,3-d]pyrimidin-5-yl)oxy]phenyl}urea], for which the IC50 on RON kinase and at GST-Aurora A was 0.01 to 0.1 µM in each case.

`O=C1NCc2c(Oc3ccc(NS(=O)(=O)c4ccccc4F)cc3F)ccnc2N1` [Example 70, 2-fluoro-N-{3-fluoro-4-[(2-oxo-1,2,3,4-tetrahydropyrido[2,3-d]pyrimidin-5-yl)oxy]phenyl}benzenesulfonamide]: the IC50 on RON kinase and at GST-Aurora A was 0.1 to 1 µM in each case.

Turning to `COc1cccc(S(=O)(=O)Nc2ccc(Oc3ccnc4c3CNC(=O)N4)c(F)c2)c1` [Example 71, N-{3-fluoro-4-[(2-oxo-1,2,3,4-tetrahydropyrido[2,3-d]pyrimidin-5-yl)oxy]phenyl}-3-methoxybenzenesulfonamide], the IC50 on RON kinase and at GST-Aurora A was 0.1 to 1 µM each time.

`O=C1NCc2c(Oc3ccc(NC(=O)c4cccn(-c5ccc(F)cc5)c4=O)nc3)ccnc2N1` [Example 283, 1-(4-Fluoro-phenyl)-2-oxo-1,2-dihydro-pyridine-3-carboxylic acid [5-(2-oxo-1,2,3,4-tetrahydro-pyrido[2,3-d]pyrimidin-5-yloxy)-pyridin-2-yl]-amide]: at RON kinase, the IC50 was 0.1 to 1 µM.

As to `Nc1nc(Nc2ccc(S(N)(=O)=O)cc2)nn1C(=O)c1c(F)cccc1F` [JNJ-7706621], the “fold less effective at inhibiting normal human cell growth than tumor cell proliferation” value in the test with normal human cell growth is “about 10 fold”.
